Results reported in patent US8012944B2, “Method for treating cancer using IAP antisense oligomer and chemotherapeutic agent” (Pharmascience Inc., priority 2003, dated 2011).
Oligonucleotides are written 5' to 3', each unit as a sugar letter and its base; * is a phosphorothioate linkage, no mark a phosphodiester; rarer units and linkages stand in square brackets, end groups in braces. Plain capitals give the bases only. d = 2'-deoxy (DNA); m = 2'-O-methyl

Legend:
Format in all cases: cell-based, human
XIAP RNA = XIAP RNA knock-down in T24 cells (TaqMan quantitative PCR)
Text: (§1) We used TaqMan quantitative PCR (described below) to assay for changes in mRNA levels after oligonucleotide treatment. We employed ELISA for determining XIAP protein levels and western blotting for determining HIAP1 protein levels. Transfection conditions were optimized with Lipofectamine plus or Lipofectamine 2000 (Life Technologies, Canada) on T24 bladder carcinoma cells or H460 non-small cell lung carcinoma cells, or lipofectin on SF-295 glioblastoma cells, using a fluorescein-tagged sense oligonucleotide (5′-mGmAGAAGATGACTGGTAAmCmA-3′; SEQ ID NO: 261) from XIAP spanning the start codon as a control. The results were visualized and gauged by epi-fluorescence microscopy. In the case of T24 cells, transfections were further optimized based on the ability of a published oligonucleotide to downregulate survivin expression (Li et al., Nat. Cell Biol. 1:461-466, 1999) (5′-U/TGTGCTATTCTGTGAAU/TU/T-3′ SEQ ID NO: 262). We optimized the transfection conditions based on the TaqMan results of survivin RNA knock-down detected with PCR primers and fluorescent probe, described in detail below. […] We then applied these conditions to screen for XIAP protein knock-down using the oligo library against T24 cells.
RNA was extracted from cells lysed in RLT buffer (QIAGEN, Valencia, Calif.), and purified using QIAGEN RNeasy columns/kits. Real-time quantitative PCR was performed on a Perkin-Elmer ABI 7700 Prism PCR machine. RNA was reverse transcribed and amplified according to the TaqMan Universal PCR Master Mix protocol of PE Biosystems, using primers and probes designed to specifically recognize XIAP, HIAP1, survivin, or GAPDH. For human survivin, the forward primer was 5′-[…]-3′ (SEQ ID NO: 263), the reverse primer was 5′-GAAAGGAAAGCGCAACCG-3′ (SEQ ID NO: 264), and the probe was 5′-(FAM)[…](TAMRA)-3′ (SEQ ID NO: 265). For human HIAP1, the forward primer was 5′-[…]-3′ (SEQ ID NO: 266), the reverse primer was 5′-[…]-3′ (SEQ ID NO: 267), and the probe was 5′-(FAM)[…](TAMRA)-3′ (SEQ ID NO: 268). For human XIAP, the forward primer was 5′-[…]-3′ (SEQ ID NO: 269), the reverse primer was 5′-[…]-3′ (SEQ ID NO: 270), and the probe was 5′-(FAM)[…](TAMRA)-3′ (SEQ ID NO: 271). For human GAPDH, the forward primer was 5′-GAAGGTGAAGGTCGGAGTC-3′ (SEQ ID NO: 272), the reverse primer was 5′-GAAGATGGTGATGGGATTC-3′ (SEQ ID NO: 273), and the probe was 5′-(JOE)[…](TAMRA)-3′ (SEQ ID NO: 274). FAM is 6-carboxyfluoroscein, JOE is 6-carboxy-4,5-dichloro-2,7-dimethoxyfluoroscein, and TAMRA is 6-carboxy-N,N,N′,N′-tetramethylrhodamine. FAM and JOE are 5′ reporter dyes, while TAMRA is a 3′ quencher dye.
Relative quantification of gene expression was performed as described in the PE Biosystems manual using GAPDH as an internal standard. The comparative Ct (cycle threshold) method was used for relative quantitation of IAP mRNA levels compared to GAPDH mRNA levels. Briefly, real-time fluorescence measurements were taken at each PCR cycle and the threshold cycle (Ct) value for each sample was calculated by determining the point at which fluorescence exceeded a threshold limit of 30 times the baseline standard deviation. The average baseline value and the baseline SD are calculated starting from the third cycle baseline value and stopping at the baseline value three cycles before the signal starts to exponentially rise. The PCR primers and/or probes for the specific IAPs were designed to span at least one exon-intron boundary separated by 1 kb or more of genomic DNA, to reduce the possibility of amplifying and detecting genomic DNA contamination. The specificity of the signal, and possible contamination from DNA, were verified by treating some RNA samples with either DNase or RNase, prior to performing the reverse transcription and PCR reaction steps.
The XIAP synthetic library of 96 antisense oligonucleotides was first screened for decreases in XIAP protein levels. […]

XIAP protein = XIAP protein knock-down in T24 cells (XIAP ELISA, relative to total protein); conditions: for XIAP protein levels relative to total protein, compared to mock transfection (in words): first screen of the library
Text: as §1
A standard colorimetric XIAP ELISA assay was performed using an affinity-purified rabbit polyclonal antibody to XIAP as a capture antibody, and was detected with a XIAP monoclonal antibody (MBL, Japan) and a biotinylated anti-mouse Ig antibody and horseradish peroxidase-conjugated streptavidin and TMB substrate. Alternatively, a polyclonal XIAP or HIAP1 antibody may be used to measure XIAP or HIAP1 protein levels, respectively.
The XIAP synthetic library of 96 antisense oligonucleotides was first screened for decreases in XIAP protein levels. Specifically, T24 cells (1.5×10^4 cells/well) were seeded in wells of a 96-well plate on day 1, and were cultured in antibiotic-free McCoy's medium for 24 hours. On day 2, the cells were transfected with XIAP antisense oligonucleotides as described above (oligonucleotides are labeled according to their plated position, i.e., A1 to H12, and include two repeats, A13 and B13 that contain lyophilized DNA pellets that stuck to the sealing membrane). Briefly, the nucleobase oligomers were diluted in 10 μl/well of serum-free, antibiotic-free McCoy's medium and then PLUS reagent was added. Lipofectamine was diluted in 10 μl/well of serum-free, antibiotic-free McCoy's medium, and both mixes were incubated for 15 minutes at room temperature. The mixes were then combined and incubated for 15 minutes at room temperature.
In the meantime, the complete medium was removed from the cells and 50 μl/well of serum-free, antibiotic-free medium was added to the cells. The transfection mixes were added to the well, and the cells were incubated for three hours. Then 30 μl/well of serum-free, antibiotic-free medium and 100 μl/well of antibiotic-free complete medium, containing 20% fetal bovine serum were added to each well.
At day 3, XIAP RNA levels were measured using quantitative real-time PCR techniques, as described above. At day 4, XIAP protein levels were measured by ELISA (FIGS. 1A, 1C, 1E, 1G, 1I, and 1K), and total cellular protein was measured biochemically (FIGS. 1B, 1D, 1F, 1H, 1J, and 1L; used to normalize the XIAP protein levels). The results were compared to a mock transfection sample (treated with the transfection agent but no oligonucleotide DNA was added, and then processed as for the other samples). Time course experiments determined that the optimal time for protein knock-down to be around 12 to 24 hours. […]

XIAP mRNA [1] = experiment: XIAP mRNA knock-down in H460 cells (real-time RT-PCR / TaqMan)
Summary of the method: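 NCI-H460 cells transfected with phosphorothioate antisense oligonucleotides via Lipofectamine 2000; RNA isolated after 6 h treatment. XIAP mRNA quantified by one-step TaqMan real-time RT-PCR, comparative Ct (threshold 30× baseline SD), normalized to GAPDH and expressed relative to untreated control cells.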

XIAP mRNA [2] = experiment: as above; conditions: 2 × 2 MBO; NCI-H460 cells, 9 hours post-transfection; relative level (mock control 1.01)

For “GTATAAAGAAACCCTGCTC (antisense; sugars from the 5' end m2 d15 m2, backbone and T or U not given here; further chemistry not fully specified) [Code D4]”, the “XIAP down-regulation T24 RNA” value (XIAP RNA) was 12%, the “XIAP down-regulation T24 protein” value (XIAP protein) was 43% and the “XIAP protein levels relative to total protein, compared to mock transfection (in words)” value (XIAP protein) was “some decrease”. The “XIAP down-regulation H460 RNA” value (XIAP mRNA [1]) was 51% and the “XIAP RNA” value (XIAP mRNA [2]) was 0.48.
In the case of “TGCCAGTGTTGATGCTGAA (antisense; chemistry not fully specified) [Code C4]”, the “XIAP down-regulation T24 RNA” value (XIAP RNA) was 28%, the “XIAP down-regulation T24 protein” value (XIAP protein) was 56% and the “XIAP protein levels relative to total protein, compared to mock transfection (in words)” value (XIAP protein) was “some decrease”. The “XIAP down-regulation H460 RNA” value (XIAP mRNA [1]) was 77% and the “XIAP RNA” value (XIAP mRNA [2]) was 0.22.
With “GAAAGGACTTTACTTTATC (antisense; sugars from the 5' end m2 d15 m2, backbone, methylation of C and T or U not given here; further chemistry not fully specified) [Code D8]” the “XIAP down-regulation T24 RNA” value (XIAP RNA) was 38%, the “XIAP down-regulation T24 protein” value (XIAP protein) was 26% and the “XIAP protein levels relative to total protein, compared to mock transfection (in words)” value (XIAP protein) was “some decrease”. The “XIAP down-regulation H460 RNA” value (XIAP mRNA [1]) was 49% and the “XIAP RNA” value (XIAP mRNA [2]) was 0.55.
“GAAAGTAATATTTAAGCAG (antisense; chemistry not fully specified) [Code E2]” was tested, and the “XIAP down-regulation T24 RNA” value (XIAP RNA) was 54%, the “XIAP down-regulation T24 protein” value (XIAP protein) was 51% and the “XIAP protein levels relative to total protein, compared to mock transfection (in words)” value (XIAP protein) was “some decrease”. For the same sequence, the “XIAP down-regulation H460 RNA” value (XIAP mRNA [1]) was 60%.
For “CTTGTCCACCTTTTCTAAA (antisense; sugars from the 5' end m2 d15 m2, backbone and T or U not given here; further chemistry not fully specified) [Code E3]”, the “XIAP down-regulation T24 RNA” value (XIAP RNA) was 53%, the “XIAP down-regulation T24 protein” value (XIAP protein) was 64% and the “XIAP protein levels relative to total protein, compared to mock transfection (in words)” value (XIAP protein) was “some decrease”. The “XIAP down-regulation H460 RNA” value (XIAP mRNA [1]) was 55% and the “XIAP RNA” value (XIAP mRNA [2]) was 0.48.
“AATATGTAAACTGTGATGC (mA*mAdTdAdTdGdTdAdAdAdCdTdGdTdGdAdTmG*mC; antisense) [Code C2]” was tested, and the “XIAP down-regulation T24 RNA” value (XIAP RNA) was 36%, the “XIAP down-regulation T24 protein” value (XIAP protein) was 45% and the “XIAP protein levels relative to total protein, compared to mock transfection (in words)” value (XIAP protein) was “some decrease”. For the same sequence, the “XIAP down-regulation H460 RNA” value (XIAP mRNA [1]) was 70% and the “XIAP RNA” value (XIAP mRNA [2]) was 0.33.
